According to patent US8580732B2, “Peptide therapy for hyperglycemia” (Duke University, priority 2009, dated 2013):

Tests used:
Type in all cases: cell-based
isolated rat islets = assay: Etoposide-induced apoptosis, Annexin V staining by flow cytometry, isolated rat islets; conditions: 72 hr
Method: Pools of 50 islets were treated with DMSO, etoposide (0.2 mM) or camptothecin (10 μM) for 72 hrs as indicated. Islets were co-incubated with peptide (50 nM TLQP-21, 50 nM exendin-4), H89 (concentration), and/or LY294002 (concentration) where indicated. Islets were dispersed using 0.05% trypsin/EDTA (Sigma) diluted 1:1 with cell dissociation buffer (Sigma) for 5-10 min at 37 C following gentle pipetting. Islets were recovered by centrifugation and stained with FITC-conjugated Annexin V and propidium iodide (Roche) according to the manufacturer's specifications. Data were collected using a FACScan analyzer and analyzed using WinMDI 2.9 software.

primary rat islets [1] = assay: Glucose-stimulated insulin secretion (GSIS), static incubation, primary rat islets; conditions: 16.7 mM Glc
Method: (§1) 832/3 and 832/13 cells derived from the parental INS-1 cell line were cultured as previously described (REF-Hohmeier/Wolheim). Pancreatic islets were isolated from male Sprague-Dawley rats according to standard procedures (See, e.g., Ronnebaum et al., (2006) J. Biol. Chem. 281: 30593-30602). For cell culture experiments, TLQP-21 was purchased from Phoenix Pharmaceuticals. For animal studies, TLQP-21 was synthesized by GenScript Corporation. AQEE-30 was a kind gift of Dr. Yun-Ping (Merck Research Laboratories).
Human VGF cDNA was purchased from Open Biosystems and subcloned into pAC.CMV using PCR engineered restriction sites. Recombinant adenovirus was generated as previously described (REF). Adenoviruses expressing Nkx6.1, Pdx-1, GFP, beta-galactosidase have been described elsewhere (REF). […]
Islets: 3 groups of 20 islets were washed with phosphate-buffered saline (PBS) and incubated in secretion assay buffer (SAB; 114 mM NaCl, 4.7 mM KCl, 1.2 mM […], 1.16 mM MgSO4, 25 mM HEPES pH 7.2, 2.5 mM CaCl2, 0.2% bovine serum albumin (Gibco), 25.5 mM NaHCO3) containing 2.5 mM Glc for 1 hr at 37° C. […] Islets were lysed in RIPA buffer containing 5 mM EDTA and total protein determined by BCA (Pierce). Insulin was measured from SAB using the Coat-a-Count kit (Siemens). Insulin content was determined from a 1:100 dilution of total protein.

primary rat islets [2] = assay: cAMP level determination in primary rat islets; conditions: 16.7 mM Glc, 30 min, TLQP-21 50 nM, exendin-4 20 nM, relative to untreated control
Method: Primary rat islets and 832/3 cells were prepared as stated for insulin secretion measurements except the incubation at stimulatory glucose was for 30 min in the presence of 0.1 mM isobuytlmethylxanthine (IBMX). Rat islets were rapidly transferred to 0.2 mL of ice-cold 80% ethanol and stored at −80° C. until assayed. Samples were evaporated to dryness and assayed using the cAMP EIA kit from Biomedical Technologies, Inc. using acetylation protocol. For 832/3 cells, the secretion buffer was removed and rapidly replaced with 0.5 mL of 80% ethanol. Cells were stored at −80° C. until assayed. 0.2 mL of sample was evaporated to dryness and assayed for cAMP using the non-acetylation protocol.

832/3 cells = assay: Glucose-stimulated insulin secretion (GSIS), static incubation, 832/3 cells; conditions: 12 mM Glc, concentrations that augment insulin release in rat islets
Method: as §1
832/3 cells were plated in triplicate per condition in 12-well dishes and assayed at confluence. Cells were washed in SAB buffer and pre-incubated for 1.5 hr in SAB containing 2.5 mM Glc. Insulin was collected by static incubation in SAB containing 2.5 mM Glc for 2 hrs at 37° C. (basal) followed by incubation in SAB containing 12 mM Glc for 2 hrs (stimulatory). Secretagogues (20 nM exendin-4, TLQP-21, AQEE-30) were added where indicated. Cells were washed in PBS, collected by centrifugation, and lysed in 50 uL RIPA containing 5 mM EDTA. Total protein was determined by BCA (Pierce). Insulin was measured from SAB using the Coat-a-Count kit (Siemens). Insulin content was determined from a 1:500 dilution of total protein.

exendin-4
protection against etoposide-mediated apoptosis (isolated rat islets; co-culture with etoposide 0.2 mM): comparable level of protection
enhancement of GSIS (primary rat islets [1]; 20 nM): 1.8 fold
increase in cAMP levels (primary rat islets [2]): ~3 fold

COc1cc([C@@H]2c3cc4c(cc3[C@@H](O[C@@H]3O[C@@H]5CO[C@@H](C)O[C@H]5[C@H](O)[C@H]3O)[C@H]3COC(=O)[C@H]23)OCO4)cc(OC)c1O [etoposide]
increase in Annexin V positive cells over untreated (DMSO) control (isolated rat islets; etoposide 0.2 mM alone): 18%
islet cells staining positive for Annexin V (isolated rat islets; etoposide 0.2 mM alone): 35%

AQEE-30: second C-terminal VGF peptide; SEQ ID NO:14 is rat AQEE-30 polypeptide (AQARRAQEEADAEERRLQEQEELENYIEHVLLHRP; listed as Rattus norvegicus)
ability to potentiate GSIS (832/3 cells): unable to augment GSIS
ability to potentiate GSIS (primary rat islets [1]): unable to augment GSIS
